Marks after values point to notes of the source that are not given here.
Columns and labels:
ICR mice = test: in vivo; conditions: female ICR mice; single-dose ip
How it was run: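 Female SPF ICR mice received a single ip dose in ethanol/Cremophor EL/saline (5:5:90), with dose lowered after deaths and raised otherwise. MTD defined as dose causing no death, no >10% weight loss versus Day 0 and no significant side effects; daily weights and twice-daily clinical observation over 7-14 days.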

[1] = tested on: HCT-116 colon cancer xenografts; test: Tumor growth inhibition of HCT-116 colon cancer xenografts in tumor-bearing nude mice (tumor volume, TGI %, RTV, T/C %); type: in vivo, Balb/c Nude mice; conditions: for T/C % (relative tumor proliferation rate): single-dose intraperitoneal, dosage mg/kg: G3, G4, G8 350, G5, G9 325, G6 300, G7 250;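 for T/C % (relative tumor proliferation rate): control C is the vehicle-treated model control group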
How it was run: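 Nude mice inoculated with HCT-116 cells (about 3×10^7 cells/mL in serum-free medium). Tumor diameter measured three times weekly and volume computed as V=3/4π(D/2)^3. Activity expressed as TGI (%) and T/C (%) from relative tumor volume Vt/V0, with V0 taken at grouping and dosing start; P<0.05 significant.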

[2] = How it was run: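 Female SPF Balb/c nude mice bearing subcutaneous HCT-116 xenografts (3×10^6 cells, right hind limb), grouped at 60–150 mm^3, 6 per group; vehicle ethanol/Cremophor EL/saline 5:5:90. Body weight thrice weekly; tumours excised and weighed at sacrifice; Mean±SEM, unpaired t-test, P<0.05.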
[3] = Day 0, G3-G9 groups, single IP dose, Mean±SEM
[4] = Day 4, G3-G9 groups, single IP dose, Mean±SEM
[5] = Day 6, G3-G9 groups, single IP dose, Mean±SEM
[6] = Day 8, G3-G9 groups, single IP dose, Mean±SEM
[7] = Day 11, G3-G9 groups, single IP dose, Mean±SEM
[8] = Day 13, G3-G9 groups, single IP dose, Mean±SEM
[9] = Day 15, G3-G9 groups, single IP dose, Mean±SEM
[10] = Day 18, G3-G9 groups, single IP dose, Mean±SEM
[11] = Day 20, G3-G9 groups, single IP dose, Mean±SEM
[12] = Day 22, G3-G9 groups, single IP dose, Mean±SEM

O=C(Nc1nc(=O)n([C@@H]2O[C@H](CO)[C@@H](O)C2(F)F)cc1Br)OCc1ccccc1 [Compound G7, 5-Br-4-N-(carboxybenzyl)-2′-deoxy-2′,2′-difluorocytidine]
dose that could be tolerated (maximum tolerated dose, MTD) (ICR mice): 200 mg/kg | Day 0 (RTV) [1, 3]: 1.00 ± 0.00 | Tumor volume, Day 0 [1, 3]: 133.56 ± 10.23 mm^3 | T/C % (relative tumor proliferation rate) ([1]; Day 0): 0.00% | Day 4 (TGI %) ([1]; Day 4, G3-G9 groups, single IP dose): 53.12% | Day 4 (RTV) [1, 4]: 0.92 ± 0.08 | Tumor volume, Day 4 [1, 4]: 124.90 ± 18.89* mm^3 | T/C % (relative tumor proliferation rate) ([1]; Day 4): 48.99% | Day 6 (TGI %) ([1]; Day 6, G3-G9 groups, single IP dose): 78.40% | Day 6 (RTV) [1, 5]: 0.66 ± 0.12 | Tumor volume, Day 6 [1, 5]: 91.30 ± 21.79** mm^3 | T/C % (relative tumor proliferation rate) ([1]; Day 6): 22.02% | Day 8 (TGI %) ([1]; Day 8, G3-G9 groups, single IP dose): 82.62% | Day 8 (RTV) [1, 6]: 0.66 ± 0.12 | Tumor volume, Day 8 [1, 6]: 91.30 ± 21.79*** mm^3 | T/C % (relative tumor proliferation rate) ([1]; Day 8): 17.67% | tumor inhibition effect ([1]; Day 8 to Day 13 after single-dose intraperitoneal administration): good tumor inhibition effect | Day 11 (TGI %) ([1]; Day 11, G3-G9 groups, single IP dose): 81.27% | Day 11 (RTV) [1, 7]: 1.10 ± 0.23 | Tumor volume, Day 11 [1, 7]: 150.60 ± 38.77** mm^3 | T/C % (relative tumor proliferation rate) ([1]; Day 11): 18.54% | Day 13 (TGI %) ([1]; Day 13, G3-G9 groups, single IP dose): 80.80% | Day 13 (RTV) [1, 8]: 1.66 ± 0.10 | Tumor volume, Day 13 [1, 8]: 222.86 ± 25.56** mm^3 | T/C % (relative tumor proliferation rate) ([1]; Day 13): 19.33% | Day 15 (TGI %) ([1]; Day 15, G3-G9 groups, single IP dose): 72.81% | Day 15 (RTV) [1, 9]: 2.91 ± 0.35 | Tumor volume, Day 15 [1, 9]: 384.06 ± 36.79* mm^3 | T/C % (relative tumor proliferation rate) ([1]; Day 15): 27.80% | Day 18 (TGI %) ([1]; Day 18, G3-G9 groups, single IP dose): 65.62% | Day 18 (RTV) [1, 10]: 4.86 ± 0.65 | Tumor volume, Day 18 [1, 10]: 636.39 ± 30.26* mm^3 | T/C % (relative tumor proliferation rate) ([1]; Day 18): 35.32% | Day 20 (TGI %) ([1]; Day 20, G3-G9 groups, single IP dose): 51.28% | Day 20 (RTV) [1, 11]: 7.99 ± 1.70 | Tumor volume, Day 20 [1, 11]: 1032.60 ± 127.82 mm^3 | T/C % (relative tumor proliferation rate) ([1]; Day 20): 50.40% | Day 22 (TGI %) ([1]; Day 22, G3-G9 groups, single IP dose): 44.07% | Day 22 (RTV) [1, 12]: 11.40 ± 2.93 | Tumor volume, Day 22 [1, 12]: 1462.80 ± 246.74 mm^3 | T/C % on Day 22 ([1]; Day 22, G4 350 mg/kg, G5 325 mg/kg, G7 250 mg/kg, single IP): 58.62% | T/C % (relative tumor proliferation rate) ([1]; Day 22): 58.62% | relative tumor volume compared with the model control group ([1]; G4 and G5 Day 4 to Day 18, G7 Day 4 to Day 15 (p<0.05-0.01), G9 only Day 4 (p<0.05)): reduced significantly | maximum value of TGI % ([1]; day of maximum: G3 Day 8, G4 Day 11, G5 Day 11, G9 Day 4, G7 Day 8, single IP): 82.62% | minimum value of T/C % ([1]; day of minimum: G4 Day 13, G5 Day 11, G7 Day 8, single IP): 17.67% | Weight change rate, Day 0 [2, 3]: 0.00 ± 0.00% | Weight of mice, Day 0 [2, 3]: 21.63 ± 1.17 g | weights of animals on Day 4 after administration ([2]; Day 4 (G7: Day 4 and Day 6), p<0.05): significantly reduced | Weight change rate, Day 4 [2, 4]: −12.28 ± 4.78 % | Weight of mice, Day 4 [2, 4]: 18.87 ± 0.09 g | weight loss rate on Day 4 after administration ([2]; Day 4, G4 350 mg/kg, G5 325 mg/kg, G7 250 mg/kg, single IP): 12.28±4.78% | Weight change rate, Day 6 [2, 5]: −4.39 ± 3.60 % | Weight of mice, Day 6 [2, 5]: 20.60 ± 0.32 g | weight loss rate on Day 6 after administration ([2]; Day 6, G7 250 mg/kg, single IP): 4.39±3.6% | Weight change rate, Day 8 [2, 6]: −1.24 ± 2.80% | Weight of mice, Day 8 [2, 6]: 21.30 ± 0.55 g | Weight change rate, Day 11 [2, 7]: 1.86 ± 3.24% | Weight of mice, Day 11 [2, 7]: 21.97 ± 0.59 g | Weight change rate, Day 13 [2, 8]: 5.62 ± 2.15% | Weight of mice, Day 13 [2, 8]: 22.80 ± 0.76 g | Weight change rate, Day 15 [2, 9]: 7.71 ± 1.47% | Weight of mice, Day 15 [2, 9]: 23.27 ± 0.93 g | Weight change rate, Day 18 [2, 10]: 6.51 ± 2.30% | Weight of mice, Day 18 [2, 10]: 23.00 ± 0.90 g | Weight change rate, Day 20 [2, 11]: 5.54 ± 2.07% | Weight of mice, Day 20 [2, 11]: 22.80 ± 1.00 g | Weight change rate, Day 22 [2, 12]: 4.65 ± 2.51% | Weight of mice, Day 22 [2, 12]: 22.60 ± 0.95 g | Day 22 Mortality ([2]; Day 22, single IP dose (mg/kg)): 0% | clinical symptoms ([2]; after single IP dose, compared with model control group): no significant differences in clinical symptoms
